Data taken from article PMC11469747 (Clinical and Translational Science, 2024).

How the values were obtained:
recombinant human UGT1A1 = assay: Phase II enzyme determination with recombinant human UGT; assay type: in vitro ADME; settings: rotundic acid 2.5 μM, UGT1A1 0.25 mg protein/mL, 20 min
[1] = system: CYP1A2, CYP2B6, CYP2C8, CYP2C9, CYP2D6, CYP2E1, CYP3A4/5; assay: Inhibitory DDI evaluation, cocktail incubation in HLM, all probe reactions; assay type: in vitro ADME; settings: human, pooled human liver microsomes
recombinant human UGT2B7 = assay: Phase II enzyme determination with recombinant human UGT; assay type: in vitro ADME; settings: rotundic acid 2.5 μM, UGT2B7 0.25 mg protein/mL, 20 min
CYP3A4/5 = assay: Phase I enzyme determination in HLM with CYP-specific inhibitor ketoconazole; assay type: in vitro ADME, human; settings: HLM with six CYP-specific inhibitors
recombinant human UGT1A6 = assay: Phase II enzyme determination with recombinant human UGT; assay type: in vitro ADME; settings: rotundic acid 2.5 μM, UGT1A6 0.25 mg protein/mL, 20 min
CYP2B6 = target: T1, CYP2B6 (Homo sapiens, UniProt P20813); assay: Inhibitory DDI evaluation, cocktail incubation in HLM; assay type: in vitro ADME
T1 sequence (P20813 1-491): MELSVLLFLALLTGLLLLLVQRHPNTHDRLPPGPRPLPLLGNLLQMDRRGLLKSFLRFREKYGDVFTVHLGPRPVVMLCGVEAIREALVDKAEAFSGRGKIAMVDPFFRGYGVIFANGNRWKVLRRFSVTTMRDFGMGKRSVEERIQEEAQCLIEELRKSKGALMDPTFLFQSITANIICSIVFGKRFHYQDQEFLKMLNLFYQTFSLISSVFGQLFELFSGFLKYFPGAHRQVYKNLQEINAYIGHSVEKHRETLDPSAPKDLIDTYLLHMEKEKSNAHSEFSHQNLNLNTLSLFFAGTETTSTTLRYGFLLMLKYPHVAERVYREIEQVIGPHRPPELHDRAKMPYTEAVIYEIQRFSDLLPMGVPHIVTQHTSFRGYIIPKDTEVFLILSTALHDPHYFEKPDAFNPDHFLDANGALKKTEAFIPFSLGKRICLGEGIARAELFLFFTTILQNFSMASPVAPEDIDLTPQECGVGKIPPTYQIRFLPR

CYP2C8 [2] = target: T2, CYP2C8 (Homo sapiens, UniProt P10632); assay: as above; assay type: in vitro ADME
T2 sequence (P10632 1-490): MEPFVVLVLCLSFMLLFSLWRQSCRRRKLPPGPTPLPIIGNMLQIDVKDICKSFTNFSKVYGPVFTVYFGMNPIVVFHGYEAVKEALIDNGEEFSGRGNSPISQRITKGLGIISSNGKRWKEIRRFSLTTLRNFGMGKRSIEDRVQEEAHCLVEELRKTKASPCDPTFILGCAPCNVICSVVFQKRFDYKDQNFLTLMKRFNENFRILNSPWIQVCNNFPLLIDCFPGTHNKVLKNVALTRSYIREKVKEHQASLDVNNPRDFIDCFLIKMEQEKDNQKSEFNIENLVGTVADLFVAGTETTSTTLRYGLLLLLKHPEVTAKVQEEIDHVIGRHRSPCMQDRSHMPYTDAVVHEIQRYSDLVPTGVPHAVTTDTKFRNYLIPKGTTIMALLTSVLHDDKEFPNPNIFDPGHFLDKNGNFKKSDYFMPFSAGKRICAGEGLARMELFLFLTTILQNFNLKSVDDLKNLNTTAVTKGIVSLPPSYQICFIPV

[3] = Metabolic stability study in HLM; assay type: in vitro ADME, human; settings: for stability in the negative control assay: without HLM, NADPH regenerating system and UDPGA, up to 120 min, 37°C
CYP1A2 = target: T3, CYP1A2 (Homo sapiens, UniProt P05177); assay: Inhibitory DDI evaluation, cocktail incubation in HLM; assay type: in vitro ADME
T3 sequence (P05177 1-516): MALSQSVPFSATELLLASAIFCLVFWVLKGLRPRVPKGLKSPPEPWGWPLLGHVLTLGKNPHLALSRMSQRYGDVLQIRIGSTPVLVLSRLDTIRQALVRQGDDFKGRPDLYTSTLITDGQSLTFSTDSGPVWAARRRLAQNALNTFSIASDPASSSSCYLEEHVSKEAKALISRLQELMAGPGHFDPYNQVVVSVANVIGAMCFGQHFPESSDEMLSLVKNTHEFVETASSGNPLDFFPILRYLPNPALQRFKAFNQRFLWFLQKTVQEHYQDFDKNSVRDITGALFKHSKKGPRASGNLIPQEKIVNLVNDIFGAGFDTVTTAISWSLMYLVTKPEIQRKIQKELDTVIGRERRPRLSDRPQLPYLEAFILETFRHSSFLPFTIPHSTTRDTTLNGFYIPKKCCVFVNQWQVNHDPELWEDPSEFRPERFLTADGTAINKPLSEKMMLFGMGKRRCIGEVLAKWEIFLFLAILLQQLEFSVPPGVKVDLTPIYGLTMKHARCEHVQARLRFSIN

recombinant human UGT1A4 = assay: Phase II enzyme determination with recombinant human UGT; assay type: in vitro ADME; settings: rotundic acid 2.5 μM, UGT1A4 0.25 mg protein/mL, 20 min
CYP2C9 = CYP2C9 (Homo sapiens, UniProt P11712); assay: Inhibitory DDI evaluation, cocktail incubation in HLM; assay type: in vitro ADME
recombinant human UGT1A9 = assay: Phase II enzyme determination with recombinant human UGT; assay type: in vitro ADME; settings: rotundic acid 2.5 μM, UGT1A9 0.25 mg protein/mL, 20 min
CYP2D6 = CYP2D6 (Homo sapiens, UniProt P10635); assay: Inhibitory DDI evaluation, cocktail incubation in HLM; assay type: in vitro ADME
CYP2E1 = CYP2E1 (Homo sapiens, UniProt P05181); assay: as above; assay type: in vitro ADME
[4] = cited from earlier work
CYP2C8 [5] = target: T2, CYP2C8; assay: Phase I enzyme determination in HLM with CYP-specific inhibitor quercetin; settings: quercetin 10 μM

Chain of CYP2C9 (P11712 whole entry): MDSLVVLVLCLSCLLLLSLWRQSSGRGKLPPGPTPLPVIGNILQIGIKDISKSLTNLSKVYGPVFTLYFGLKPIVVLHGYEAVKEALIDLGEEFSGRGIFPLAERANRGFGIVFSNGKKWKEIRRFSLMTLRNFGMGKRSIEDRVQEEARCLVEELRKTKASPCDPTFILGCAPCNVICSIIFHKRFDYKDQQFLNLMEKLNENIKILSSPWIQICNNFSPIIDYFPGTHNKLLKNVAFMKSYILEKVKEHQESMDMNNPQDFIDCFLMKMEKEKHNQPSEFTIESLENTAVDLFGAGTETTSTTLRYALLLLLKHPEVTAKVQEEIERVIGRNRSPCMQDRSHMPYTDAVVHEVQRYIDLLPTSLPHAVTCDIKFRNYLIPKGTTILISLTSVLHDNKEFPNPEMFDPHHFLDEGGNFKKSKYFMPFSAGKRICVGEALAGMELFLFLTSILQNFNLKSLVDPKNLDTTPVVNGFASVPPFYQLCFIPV
Chain of CYP2D6 (P10635 whole entry): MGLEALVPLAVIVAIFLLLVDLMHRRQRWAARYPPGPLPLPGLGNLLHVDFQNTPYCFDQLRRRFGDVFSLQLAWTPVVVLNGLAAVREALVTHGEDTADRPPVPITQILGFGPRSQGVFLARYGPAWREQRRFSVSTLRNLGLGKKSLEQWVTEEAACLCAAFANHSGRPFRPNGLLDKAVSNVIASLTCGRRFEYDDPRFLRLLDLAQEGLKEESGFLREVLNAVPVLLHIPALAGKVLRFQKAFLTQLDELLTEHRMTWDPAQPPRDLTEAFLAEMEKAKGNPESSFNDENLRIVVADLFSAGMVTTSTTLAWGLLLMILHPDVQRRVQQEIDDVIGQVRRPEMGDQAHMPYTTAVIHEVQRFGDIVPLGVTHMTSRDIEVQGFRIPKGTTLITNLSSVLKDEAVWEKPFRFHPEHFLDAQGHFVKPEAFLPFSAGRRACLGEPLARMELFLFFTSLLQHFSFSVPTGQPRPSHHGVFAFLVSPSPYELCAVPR
Chain of CYP2E1 (P05181 whole entry): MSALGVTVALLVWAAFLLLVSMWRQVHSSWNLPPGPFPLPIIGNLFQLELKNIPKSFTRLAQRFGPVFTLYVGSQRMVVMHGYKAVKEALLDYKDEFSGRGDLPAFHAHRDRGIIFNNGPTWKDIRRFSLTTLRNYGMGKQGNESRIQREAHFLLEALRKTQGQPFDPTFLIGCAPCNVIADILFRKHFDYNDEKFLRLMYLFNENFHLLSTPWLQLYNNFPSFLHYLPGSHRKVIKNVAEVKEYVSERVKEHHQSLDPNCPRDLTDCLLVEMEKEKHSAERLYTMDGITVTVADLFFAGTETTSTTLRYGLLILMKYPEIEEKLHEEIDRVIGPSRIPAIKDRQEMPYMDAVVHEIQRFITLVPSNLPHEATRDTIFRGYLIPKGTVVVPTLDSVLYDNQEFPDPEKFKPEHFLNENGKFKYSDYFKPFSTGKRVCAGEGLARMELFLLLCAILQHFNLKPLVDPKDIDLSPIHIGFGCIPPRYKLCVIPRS

| IC50 at 20 min [1] [µM] | IC50 (CYP2B6) [µM] | IC50 (CYP2C8 [2]) [µM] | stability in the negative control assay [3] | IC50 (CYP1A2) [µM] | IC50 (CYP2C9) [µM] | IC50 (CYP2D6) [µM] | IC50 (CYP2E1) [µM] | Structure (SMILES) | enzymes catalyzing hydroxylation (CYP3A4/5) | other results |
| --- | --- | --- | --- | --- | --- | --- | --- | --- | --- | --- |
| > 50 | > 50 | > 50 | stable | > 50 | > 50 | > 50 | > 50 | C[C@@H]1CC[C@]2(C(=O)O)CC[C@]3(C)C(=CC[C@@H]4[C@@]5(C)CC[C@H](O)[C@@](C)(CO)[C@@H]5CC[C@]43C)[C@@H]2[C@]1(C)O [rotundic acid] | almost exclusively catalyzed by CYP3A4/5 | generation of glucuronidated rotundic acid (recombinant human UGT1A1): not detected; generation of glucuronidated rotundic acid (recombinant human UGT2B7): not detected; generation of glucuronidated rotundic acid (recombinant human UGT1A6): not detected; metabolized after incubation for 120 min ([3]; ~1 μM, HLM, UDPGA absent (UDPGA-)): ~ 50%; compound remaining after 120 min ([3]; ~1 μM, HLM, absence of the NADPH regeneration system (NADPH-)): approximately 25%; rotundic acid remained after 120 min ([3]; ~1 μM, HLM, normal group, under regular conditions): less than 10%; generation of glucuronidated rotundic acid (recombinant human UGT1A4): detected; generation of glucuronidated rotundic acid (recombinant human UGT1A9): not detected |
| > 50 | > 50 | > 50 | stable | > 50 | > 50 | > 50 | > 50 | C[C@@H]1CC[C@]2(C(=O)O[C@@H]3O[C@H](CO)[C@@H](O)[C@H](O)[C@H]3O)CC[C@]3(C)C(=CC[C@@H]4[C@@]5(C)CC[C@H](O)[C@@](C)(CO)[C@@H]5CC[C@]43C)[C@@H]2[C@]1(C)O [pedunculoside] | mainly catalyzed by CYP3A4/5 and partly by CYP2C8 | Cmax ([4]; plasma, after oral administration, converted from ng/mL): 154 to 768 nM; elimination half-life ([4]; rats, oral or intravenous): short |
| – | – | – | – | – | – | – | – | O=c1c(O)c(-c2ccc(O)c(O)c2)oc2cc(O)cc(O)c12 [quercetin] | – | generation rate of PE + O (1) (CYP2C8 [5]): approximately 45%; generation rate of PE + O (2) (CYP2C8 [5]): approximately 60% |
